Data reported in US20020107283A1, “Carbamate compounds for use in preventing or treating neuropathic pain and cluster and migraine headache-associated pain” (priority 2000, published 2002).

Tests used:
[1] = test system: Chung model of neuropathic pain (L5 spinal nerve ligated rats, mechanical allodynia); assay: Antiallodynic activity in the Chung model, manually applied von Frey probes; format: in vivo, Sprague-Dawley rats
From the text: The procedure used to test the antiallodynic activity of an enantiomer of Formula (I) substantially free of other enantiomers was the procedure for the measurement of allodynia found in the Chung Model (Kim S. H. and Chung J. M., An Experimental Model for Peripheral Neuropathy Produced by Segmental Spinal Nerve Ligation in the Rat, Pain, 1992, 50, 355-363).
Pathogen-free, male albino Sprague-Dawley rats, 200 g, were purchased from Harlan Industries (Indianapolis, Ind.) and maintained on a 12-h light/dark cycle (lights on at 06:00 h) in a climate-controlled room with food and water available ad libitum up to the time of the testing and food withdrawn 18 hr prior to testing.
The rats were anesthetized with isoflurane inhalant anesthesia. The left lumbar spinal nerve at the level of L5 was tightly ligated (4-0 silk suture) distal to the dorsal root ganglion and prior to entrance into the sciatic nerve, as described by Kim and Chung. The incisions were closed and the rats were allowed to recover under conditions described above. This procedure results in mechanical allodynia in the left hind paw. The sham operation, when performed, consisted of a similar surgical procedure lacking only the final ligation of the spinal nerve. Mechanical (tactile) allodynia was assessed by recording the pressure at which the affected paw (ipsilateral to the site of nerve injury) was withdrawn from graded stimuli (von Frey filaments ranging from 4.0 to 148.1 mN) applied by hand perpendicularly to the plantar surface of the paw (between the footpads) through wire-mesh observation cages. A paw withdrawal threshold (PWT) was determined by sequentially increasing and decreasing the stimulus strength and analyzing withdrawal data using a Dixon non-parametric test, as described by Chaplan et al (Chaplan S. R., Bach F. W., Pogrel J. W., Chung J. M. and Yaksh T. L., Quantitative Assessment of Tactile Allodynia in the Rat Paw, J Neurosci Meth, 1994, 53, 55-63). Normal rats, sham operated rats, and the contralateral paw of L5 ligated rats withstand at least 148.1 mN (equivalent to 15 g) of pressure without responding. Spinal nerve ligated rats respond to as little as 4.0 mN (equivalent to 0.41 g) of pressure on the affected paw. […] The PWT was used to calculate the % maximal possible effect (% MPE) according to the formula:
% MPE=100×(PWT−CT)/(CO−CT).
As summarized in Table 1 below, the enantiomer of Formula (Ib) substantially free of other enantiomers was screened for antiallodynic activity in the Chung model of neuropathic pain at a dose of 30 mg/kg, po, with responses being measured at 0.5, 1, 2 and 4 hr post dosing.

[2] = test system: L5 and L6 spinal nerve ligated rats, mechanical allodynia; assay: Antiallodynic activity, electronic Von Frey probes, L5 and L6 spinal nerve ligation; format: in vivo, Rj: Wistar (Han) rats
Method: Pathogen-free, male Rj: Wistar (Han) rats (300-380 g) were purchased from Elevage Janvier, 53940 Le Genest-Saint-Isle, France. The animals were maintained on a 12-h light/dark cycle (lights on from 7:00-19:00) in a controlled ambient temperature of 21±1° C., and relative humidity maintained at 40-70%. The animals had free access to food (UAR 113) and tap water until tested.
Rats were anesthetized (sodium pentobarbital 40 mg/kg i.p.). A ligature was tied tightly around the left L5 and L6 spinal nerves. The rats received an i.m. injection of 50 000 IU Penicillin (Diamant®) and were allowed to recover. This procedure results in mechanical allodynia in the left hind paw. Two weeks after the surgery, when the allodynic state was fully developed, rats were submitted consecutively to tactile stimulation of both the non-lesioned and the lesioned hindpaws.
The animals were placed on an elevated grid floor in Plexiglass boxes (19×11.5×13 cm). The tip of an electronic Von Frey probe (Bioseb, Model 1610) was then applied with increasing pressure to the lesioned and non-lesioned hindpaws and the force required to induce paw-withdrawal was automatically recorded. Prior to receiving drug treatment all animals were submitted to tactile stimulation and assigned to treatment groups matched on the basis of their pain response. This procedure was carried out 3 times for each paw and the mean paw force was calculated to provide basic scores per animal. Data were expressed as percent change (means ±SEM) of effectiveness from the controls. Statistical analysis was done using non-paired and paired Student's t tests.
As summarized in Table 2 below, an enantiomer of Formula (Ib) substantially free of other enantiomers was evaluated at the doses 10, 30 and 100 mg/kg (n=8), administered p.o. in a volume of 5 mL/kg. Morphine (128 mg/kg) was used as reference substance. Control animals received a p.o. administration of vehicle. The test was performed blind 30, 60 and 90 minutes after drug administration.

Compound	% Maximum Possible Effect ([1]; 30 mg/kg, po, paw withdrawal threshold, activity seen at 30 min post-dosing, n=5)	time course of antiallodynic activity ([1]; 30 mg/kg, po, responses measured at 0.5, 1, 2 and 4 hr post dosing)	dose dependence of antiallodynic responses ([1]; about 5 mg/kg, p.o. to about 45 mg/kg, p.o., 30 min)	time of peak antiallodynic effect ([1]; after oral dosing)	maximum % MPE ([1]; highest dose tested (about 45 mg/kg, p.o.), 30 min after oral dosing, N=5)	% Change (paw-withdrawal force from controls) ([2]; 10 mg/kg p.o., ligatured paw, 60 minute measurement, n=8, p ns)	% Change (paw-withdrawal force from controls) ([2]; 30 mg/kg p.o., ligatured paw, 60 minute measurement, n=8, p <0.05)	% Change (paw-withdrawal force from controls) ([2]; 100 mg/kg p.o., ligatured paw, 60 minute measurement, n=8, p <0.05)	effect on the non-ligatured paw ([2]; 10, 30 and 100 mg/kg p.o., 60 minute measurement)	anti-allodynic effect at 90 min post-dosing ([2]; p.o., 90 min post-dosing)	% Change (paw-withdrawal force from controls) ([2]; 128 mg/Kg morphine, positive control)
NC(=O)OC[C@@H](O)c1ccccc1Cl [enantiomer of Formula (Ib)]	51%	exhibited antiallodynic activity at 30 min. post-dosing, and responses returned to baseline by one hour	dose-dependent	30 min	60%	65%	80%	72%	without affecting the non-ligatured paw	no longer present by 90 min post-dosing	
CN1CC[C@]23c4c5ccc(O)c4O[C@H]2[C@@H](O)C=C[C@H]3[C@H]1C5 [morphine, Morphine, reference compound]											38%
